Reference: patent US10617734B2, “STAT3 and ERK signal pathway inhibitor comprising mogrosides and analogs thereof” (BEIJING UNIVERSITY OF AGRICULTURE, priority 2014, dated 2020)

Legend:
[1] = system: phosphorylated STAT3 (P-STAT3, Tyr705); experiment: Western Blotting of phosphorylated STAT3 in U937 cells; type: cell-based; conditions: 10 μmol/L, 24 hours
Procedure: (§1) The inhibition of the STAT3 and ERK signal pathways achieved by Mogroside I E1, Mogroside II A2 and mogrol was detected by Western Blotting, specifically:
Group 1: histiocytic lymphoma U937 cells (1×10^6 cells/well) were inoculated into a 6-well culture plate for staying overnight, and 0 and 10 μmol/L of Mogroside I E1, Mogroside II A2 and mogrol were added respectively, and the culture was continued for 24 hours;
(§2) After the termination of the cell culture, the culture solution was removed, and the residue was washed with PBS (0.01 mol/L, pH 7.4), and then a cell lysis solution containing protease inhibitors was added at an amount of 50 μl/well, and the mixture was placed in an ice bath for lysis at 4° C. for 30 min and then centrifuged at 14000 r/min for 10 min, and then total proteins were obtained from the supernatant;
(§3) The protein concentrations were measured with bovine serum albumin (BSA) as the standard. 50 μg of the total proteins was separated by polyacrylamide gel electrophoresis with 12% […], electrophoretically transferred to a PVDF membrane (polyvinylidene fluoride membrane), and blocked for 1 h by 5% of skim milk (containing 0.1% of Tween 20), and then antibodies p-STAT3 (Tyr705) and p-Erk1/2 as well as β-actin were added, and the primary antibody was incubated at 4° C. overnight (β-actin was used as reference in loading amount); the membrane was washed for 3 times with TBS-T, 5 min each time; secondary antibody marked by horseradish peroxidase (HRP) was added for incubation at room temperature for 1 h, the membrane was washed for 3 times with a wash solution (TBS-T), 10 min each time, and then ECL was added for incubation in dark for 5 min, and subsequently, a fluorescence imaging analyzer was used for image development and scanning analysis, and the results of Western Blotting detection are shown in FIGS. 4 to 6.

leukemia cells K562 = experiment: MTT colorimetric experiment, cell growth inhibition; type: cell-based, human; conditions: leukemia cells K562, 0.1, 1, 10, 100, 200 and 250 μmol/L, MTT after 24 h
Procedure: (§4) MTT colorimetric experiments were performed after 24 h, respectively: prior to the finish of each experiment, 15 μl of MTT solution in a concentration of 5 mg/ml was added to each well, and the culture was continued in dark at 37° C. for 4 h, then 150 μl of DMSO was added to each well and oscillating in a shaker for 10 min, and then the residue was placed in a microplate reader to detect the optical density OD) at 490 nm, and the inhibition rate was calculated according to the following formula: cell growth inhibition rate (control group OD490—test group OD490)/control group OD490×100%.

[2] = system: human melanoma A875 cells; experiment: as above; type: cell-based; conditions: melanoma A875 cells, 0.1, 1, 10, 100, 200 and 250 μmol/L, MTT after 24 h
Procedure: as §4

lymphoma U937 cells = experiment: as above; type: cell-based; conditions: U937 cells, 0.1, 1, 10, 100, 200 and 250 μmol/L, MTT after 24 h
Procedure: as §4

[3] = system: cycle regulatory protein P21; experiment: Western Blotting of P21 in K562 cells; type: cell-based, human; conditions: leukemia cells K562, 10 μmol/L, 24 h
Procedure: (§5) The STAT3 and ERK signal pathways can regulate cyclins and apoptosis genes, and in order to verify the effects of […] and mogrol, the expression status of downstream genes of STAT3 and ERK was detected, wherein the influences of the three mogrosides and analogs thereof, i.e. Mogrol I E1, Mogrol II A2 and mogrol, on Bcl-2 and P21 proteins in the histiocytic lymphoma U937 cells, human melanoma A875 cells and leukemia cells K562 were determined, respectively.
(§6) The regulation of Bcl-2 and P21 proteins by mogrosides and analog thereof to the was detected by Western Blotting, specifically: histiocytic lymphoma U937 cells, human melanoma A875 cells and leukemia cells K562 (1×10^6 cells/well) were inoculated into a 6-well culture plate overnight, and 0 and 10 μmol/L of the mogrosides and analogs thereof were added respectively, and kept cultured for 24 h. […]
(§7) The protein concentration was measured with bovine serum albumin (BSA) as the standard. 50 μg of the total proteins were separated by polyacrylamide gel electrophoresis with 12% SDS, and electrophoretically transferred to a PVDF membrane (polyvinylidene fluoride membrane), and blocked for 1 h by 5% of skim milk (containing 0.1% of Tween 20), and then antibodies P21, Bcl-2 and β-actin were added, wherein the primary antibody was incubated at 4° C. overnight (β-actin was used as reference loading amount); the membrane was washed for 3 times with TBS-T, 5 min each time; secondary antibody marked by horseradish peroxidase (HRP) was added for incubation at room temperature for 1 h, the membrane was washed with rinse solution (TBS-T) for 3 times, 10 min each time, and then ECL was added for incubation in dark for 5 min, and subsequently, a fluorescence imaging analyzer was used for image development and scanning analysis.

[4] = system: phosphorylated ERK1/2 (P-ERK1/2); experiment: Western Blotting of phosphorylated ERK1/2 in A875 cells; type: cell-based, human; conditions: melanoma A875 cells, 10 μmol/L, 24 hours
Procedure: as §1
Group 2: human melanoma A875 cells (1×10^6 cells/well) were inoculated into a 6-well culture plate for staying overnight, and 0 and 10 μmol/L of Mogroside I E1, Mogroside II A2 and mogrol were added respectively, and the culture was continued for 24 hours;
as §2, §3

[5] = system: cycle regulatory protein P21; experiment: Western Blotting of P21 in A875 cells; type: cell-based; conditions: human melanoma A875 cells, 10 μmol/L, 24 h
Procedure: as §5, §6, §7

[6] = system: human melanoma A875 cells; experiment: Cell cycle distribution, PI staining, flow cytometer; type: cell-based
Text: (§8) The influences of Mogroside I E1, Mogroside II A2 and mogrol on the cell cycle distribution of the histiocytic lymphoma U937 cells, the human melanoma A875 cells and the leukemia cells K562.
(§9) The cell cycle arrest achieved by drugs is an important approach to the inhibition of cancer cell proliferation.

[7] = system: histiocytic lymphoma U937 cells; experiment: as above; type: cell-based; conditions: 24 h
Text: as §8, §9

[8] = system: anti-apoptotic protein Bcl-2; experiment: Western Blotting of Bcl-2 in K562 cells; type: cell-based, human; conditions: leukemia cells K562, 10 μmol/L, 24 h
Procedure: as §5, §6, §7

## C[C@H](CC[C@@H](O)C(C)(C)O)[C@H]1CC[C@@]2(C)[C@@H]3CC=C4[C@@H](CC[C@H](O)C4(C)C)[C@]3(C)[C@H](O)C[C@]12C [mogrol]
[1]
  expression level of phosphorylated STAT3 (P-STAT3): significantly decreased
Leukemia cells K562
  cell growth inhibition rate: inhibitory effect on the proliferation
[2]
  cell growth inhibition rate: inhibitory effect on the proliferation
Lymphoma U937 cells
  cell growth inhibition rate: inhibitory effect on the proliferation
[3]
  expression of cycle regulatory protein P21: significantly up-regulated
[4]
  expression level of phosphorylated ERK1/2 (P-ERK1/2): significantly decreased
[5]
  expression of cycle regulatory protein P21: significantly up-regulated
[6]; human melanoma A875 cells, 10 μmol/L, 24 h
  cell cycle distribution (proportion of cells in the G0/G1 phase): G0/G1 arrest
[6]; melanoma A875 cells, different concentrations (FIG. 12)
  proportion of cells in the G0/G1 phase with the rise of the concentration: gradually increased
[7]; U937 cells, 0, 1, 10, 150 and 250 μmol/L
  proportion of cells in G0/G1 phase with the rise of the concentration: gradually increased
[7]; U937 cells, 10 μmol/L
  cell cycle distribution (proportion of cells of G0/G1 phase): G0/G1 arrest
[8]
  expression of anti-apoptotic protein Bcl-2: significantly down-regulated
